Activity observed %, Leaf attack % and inhibition data for ten compounds are collected here from US20090023687A1, “Method for Controlling Phytopathogenic Organisms” (SYNGENTA CROP PROTECTION, INC., priority 2005, published 2009).

Holding throughout (assay type): in vivo
Assay [1] concerns Phakopsora pachyrhizi. The assay can be described thus: Leaf disc test with Phakopsora pachyrhizi on glyphosate sensitive soybean, leaf disks treated (Example 4). The source says:
(§1) A synergistic effect exists whenever the action of an active ingredient combination is greater than the action expected from the effect of the individual components.
(§2) The action to be expected (E) for a given active ingredient combination obeys the so-called COLBY formula and can be calculated as follows (COLBY, S. R. “Calculating synergistic and antagonistic responses of herbicide combination”. Weeds, Vol. 15, pages 20-22; 1967):
(§3) ppm=milligrams of active ingredient (=a.i.) per litre of spray mixture X=% action by active ingredient I using p ppm of active ingredient Y=% action by active ingredient II using q ppm of active ingredient.
(§4) According to Colby, the expected (additive) action of active ingredients I+II using p+q ppm of active ingredient is
(§5) If the action actually observed (O) is greater than the expected action (E), then the action of the combination is superadditive, i.e. there is a synergistic effect.
(§6) A series of leaf disc tests were conducted to show the effects of tank mixtures of glyphosate and pesticides or plant activators on Asian soybean rust. The soybean variety tested was brand Williams82 glyphosate sensitive soybean. The leaf source for the testing was the first trifoliate leaf. Six (6) repetitions for each formulation and at each rate were conducted. Treatment of the leaf disks with the recited active ingredients was conducted 4 weeks after planting. The leaves were inoculated with Phakopsora pachyrhizi (Asian soybean rust (ASR)) one (1) day after treatment. Evaluation of the leaf was conducted ten (10) days after inoculation and the mean percent infestation of the six repetitions is reported in Tables 8-11.
As glyphosate source Touchdown® HiTech or Zapp® QI was used. The fungicides were used as commercial formulations: Bion® WG50 plant activator comprising acibenzolar-S-methyl (Syngenta Corp.), Opus® SC125 fungicide comprising epoxiconazole commercially (BASF AG), Tilt® EC250 fungicide comprising propiconazole (Syngenta Corp.), Quadris® SC250 fungicide comprising azoxystrobin (Syngenta Corp.). The rates of the active ingredients used in the tests are set in Tables 8-11 as mg active ingredient (a.i.)/L.

The subject of assay [2] is Phakopsora pachyrhizi. Put plainly: whole plant or invertebrate. Particulars: in Glycine max, foliar, read-out: % activity observed.
Description: as §1, §2, §3, §4, §5
as §6, with “the ortho-substituted phenyl-amide (OPA) fungicides represented by structures F-5 and F-9” for “pesticides or plant activators”, “leaf” for “leaf disks”, “3 and 4.” for “8-11.”
The glyphosate source was Touchdown® HiTech herbicide (Syngenta Corp.), containing the potassium salt of glyphosate and no adjuvant system. The compound OPA F-5 used was a compound of formula F-5, wherein the ratio of racemic compounds of formula F-3 (syn) to racemic compounds of formula F-4 (anti) was 9:1. The compound OPA F-9 used was a compound of formula F-9, wherein the ratio of racemic compounds of formula F-7 (trans) to racemic compounds of formula F-8 (cis) was around 100:1. The fungicides used were EC100 formulations of OPA F-5 and OPA F-9 which are emulsion concentrates containing 100 ga.i./L. The rates of the active ingredients used in the tests are set in the table as mg active ingredient (a.i.)/L.

The subject of another assay is Puccinia recondita. The assay can be described thus: Greenhouse trial with Puccinia recondita on glyphosate sensitive wheat (Example 3). Conditions: read-out: % activity observed.
Description: as §1, §2, §3, §4, §5
Greenhouse tests were conducted to show the effects of tank mixtures of glyphosate and the ortho-substituted phenyl-amide (OPA) fungicides represented by structures F-10, F-5 and F-9 on cereal rust Puccinia recondita. The wheat variety tested was brand Kanzler glyphosate sensitive wheat. Three (3) repetitions for each formulation and at each rate were conducted. Treatment of the plants with the recited active ingredients was conducted preventatively 16 days after planting. The leaves were inoculated with Puccinia recondita one (1) day after treatment. Evaluation of the leaf was conducted […] after inoculation and the mean percent infestation of the three repetitions is reported in Tables 5-7.
The glyphosate source was Zapp® QI herbicide containing the potassium salt of glyphosate as well as an adjuvant system. The compound OPA F-5 used was a compound of formula F-5, wherein the ratio of racemic compounds of formula F-3 (syn) to racemic compounds of formula F-4 (anti) was 9:1. The compound OPA F-9 used was a compound of formula F-9, wherein the ratio of racemic compounds of formula F-7 (trans) to racemic compounds of formula F-8 (cis) was around 100:1. The fungicides used were EC 100 formulations of OPA F-10, OPA F-5 and OPA F-9 which are emulsion concentrates containing 100 ga.i./L. The rates of the active ingredients used in the tests are set in Tables 5-7 as mg active ingredient (a.i.)/L.

Assay [3] relates to Phakopsora pachyrhizi. The assay can be described thus: Application on whole plants: leaf disc test with Phakopsora pachyrhizi on glyphosate sensitive soybean (Example 5).
Description: as §1, §2, §3, §4, §5
(§7) A series of leaf disc tests were conducted to show the effects of tank mixtures of glyphosate and pesticides or plant activators on Asian soybean rust. The soybean variety tested was brand Williams82 glyphosate sensitive soybean. The leaf source for the testing was the first trifoliate leaf. Six (6) repetitions for each formulation and at each rate were conducted. Treatment of whole plants with the recited active ingredients was conducted 4 weeks after planting. After application, leaf disks were cut and inoculated with Phakopsora pachyrhizi (Asian soybean rust (ASR)) one (1) day after treatment. Evaluation of the leaf was conducted ten (10) days after inoculation and the mean percent infestation of the six repetitions is reported in Tables 12-14.
As glyphosate source Touchdown® HiTech or Zapp® QI was used. The fungicides were used as commercial formulations: Cantus® WG50 fungicide comprising boscalid (BASF AG), Quadris® SC250 fungicide and Bion® WG50 plant activator comprising acibenzolar-S-methyl. The rates of the active ingredients used in the tests are set in Tables 12-14 as g active ingredient (a.i.)/hectare (ha). The spray volume was 200 l/ha.

The test system of assay [4] is Phakopsora pachyrhizi. The assay can be described thus: Application on whole plants: leaf disc test with Phakopsora pachyrhizi on glyphosate tolerant soybean (Example 6).
Description: as §1, §2, §3, §4, §5
as §7, with “Leaf” for “A series of leaf”, “S40-R9” for “Williams82”, “tolerant” for “sensitive”, “[…]” for “of whole plants with the recited active ingredients was conducted 4 weeks after planting. After”, “15-17.” for “12-14.”
As glyphosate source Touchdown® HiTech or Zapp® QI was used. The fungicides were used as commercial formulations: Bravo® SC500 fungicide comprising chlorothalonil (Syngenta Corp.), Score® EC250 fungicide comprising difenaconazole (Syngenta Corp.) and Mancozeb 80WP fungicide comprising mancozeb. The rates of the active ingredients used in the tests are set in Tables 15-17 as g active ingredient (a.i.)/hectare (ha). The spray volume was 200 l/ha.

The mark [5] stands for this setting: Epoxiconazole Opus SC125 0.2 mg a.i./L.
Where [6] appears, read: Acibenzolar Bion WG50 6.7 mg a.i./L.
The mark [7] stands for this setting: Acibenzolar Bion WG50 20 mg a.i./L.
Setting [8] is: Acibenzolar Bion WG50 10 g a.i./ha.
The mark [9] stands for this setting: Acibenzolar Bion WG50 60 g a.i./ha.
[10] abbreviates: Azoxystrobin Quadris SC250 0.2 mg a.i./L.
Setting [11] is: Azoxystrobin Quadris SC250 0.7 mg a.i./L.
[12] abbreviates: Azoxystrobin Quadris SC250 50 g a.i./ha.
Where [13] appears, read: Azoxystrobin Quadris SC250 100 g a.i./ha.
[14] abbreviates: Boscalid Cantus WG50 250 g a.i./ha.
Setting [15] is: Boscalid Cantus WG50 500 g a.i./ha.
The mark [16] stands for this setting: Chlorothalonil Bravo SC500 83.3 g a.i./ha.
Setting [17] is: Chlorothalonil Bravo SC500 1500 g a.i./ha.
[18] abbreviates: Difenoconazole Score EC250 5 g a.i./ha.
Where [19] appears, read: Difenoconazole Score EC250 15 g a.i./ha.
The mark [20] stands for this setting: Propiconazole Tilt EC250 0.7 mg a.i./L.

Read-outs that look alike come from different tables or passages of the source.

With `Fc1ccc([C@]2(Cn3cncn3)O[C@H]2c2ccccc2Cl)cc1` (racemic) [Epoxiconazole, epoxiconazole], in the assay with Phakopsora pachyrhizi [1] (setting [5]), the Activity observed % is 19% and the Leaf attack % came to 62%.

For the compound `Cn1cc(C(=O)Nc2ccccc2C2CC2C2CC2)c(C(F)F)n1` (racemic) [OPA F-9], the inhibition at 0.2 µg/mL with Phakopsora pachyrhizi [2] (OPA F-9 0.2 mg a.i./L) came out at 0%. Moreover, in the assay with Phakopsora pachyrhizi [2] (OPA F-9 0.7 mg a.i./L), the inhibition at 0.7 µg/mL is 0%. Moreover, the inhibition at 2.2 µg/mL with Phakopsora pachyrhizi [2] (OPA F-9 2.2 mg a.i./L) was determined as 24%. In addition, the inhibition at 6.7 µg/mL in the assay with Phakopsora pachyrhizi [2] (OPA F-9 6.7 mg a.i./L) is 74%. Also, the inhibition at 20 µg/mL in the assay with Phakopsora pachyrhizi [2] (OPA F-9 20 mg a.i./L) came out at 100%. For the same compound, the inhibition at 6.6 µg/mL in the assay with Puccinia recondita (OPA F-9 6.6 mg a.i./L) amounted to 81.9%.

On to `CSC(=O)c1cccc2nnsc12` [Acibenzolar, acibenzolar-S-methyl], for which the Activity observed % in the assay on Phakopsora pachyrhizi [1] (setting [6]) was determined as 0%; in the assay on Phakopsora pachyrhizi [1] (setting [7]) it was 10%; in the assay with Phakopsora pachyrhizi [3] (setting [8]) it was 19%; in the assay with Phakopsora pachyrhizi [3] (setting [9]), 31%. For the same compound, the Leaf attack % with Phakopsora pachyrhizi [1] (setting [6]) came to 74%; in the assay on Phakopsora pachyrhizi [1] (setting [7]), 62%; in the assay on Phakopsora pachyrhizi [3] (setting [8]) it was 50%; in the assay on Phakopsora pachyrhizi [3] (setting [9]), 43%.

On to `CO/C=C(/C(=O)OC)c1ccccc1Oc1cc(Oc2ccccc2C#N)ncn1` [Azoxystrobin, azoxystrobin], for which the Activity observed % in the assay on Phakopsora pachyrhizi [1] (setting [10]) is listed as 15%; in the assay with Phakopsora pachyrhizi [1] (setting [11]) it was 60%; in the assay on Phakopsora pachyrhizi [3] (setting [12]), 0%; in the assay with Phakopsora pachyrhizi [3] (setting [13]), 29%. Besides, the Leaf attack % worked out at 68% in the assay with Phakopsora pachyrhizi [1] (setting [10]), 32% in the assay with Phakopsora pachyrhizi [1] (setting [11]), 62% in the assay with Phakopsora pachyrhizi [3] (setting [12]) and 44% in the assay on Phakopsora pachyrhizi [3] (setting [13]).

As for `O=C(Nc1ccccc1-c1ccc(Cl)cc1)c1cccnc1Cl` [Boscalid, boscalid], the Activity observed % is on record as 7% with Phakopsora pachyrhizi [3] (setting [14]) and 19% in the assay with Phakopsora pachyrhizi [3] (setting [15]). For the same compound, the Leaf attack % was 58% in the assay with Phakopsora pachyrhizi [3] (setting [14]) and 50% in the assay on Phakopsora pachyrhizi [3] (setting [15]).

For `N#Cc1c(Cl)c(Cl)c(Cl)c(C#N)c1Cl` [Chlorothalonil, chlorothalonil], the values for the Activity observed % with Phakopsora pachyrhizi [4] (setting [16]) and with Phakopsora pachyrhizi [4] (setting [17]) were 0% and 17%, respectively. The figures for the Leaf attack % in the assay with Phakopsora pachyrhizi [4] (setting [16]) and with Phakopsora pachyrhizi [4] (setting [17]) were 80% and 50%, respectively.

For `CC1COC(Cn2cncn2)(c2ccc(Oc3ccc(Cl)cc3)cc2Cl)O1` (centres unmarked) [Difenoconazole, difenaconazole], the Activity observed % in the assay on Phakopsora pachyrhizi [4] (setting [18]) and with Phakopsora pachyrhizi [4] (setting [19]) was 0% each time. The Leaf attack % in the assay on Phakopsora pachyrhizi [4] (setting [18]) and in the assay with Phakopsora pachyrhizi [4] (setting [19]) was 50% throughout.

In the case of `Cn1cc(C(=O)Nc2ccccc2-c2ccc(C#CC(C)(C)C)cc2)c(C(F)F)n1` [OPA F-10], the inhibition at 2.2 µg/mL with Puccinia recondita (OPA F-10 2.2 mg a.i./L) was determined as 0%. Moreover, the inhibition at 6.6 µg/mL with Puccinia recondita (OPA F-10 6.6 mg a.i./L) was determined as 0%.

Consider `CCCC1COC(Cn2cncn2)(c2ccc(Cl)cc2Cl)O1` (centres unmarked) [Propiconazole, propiconazole], for which, in the assay with Phakopsora pachyrhizi [1] (setting [20]), the Activity observed % came to 4% and the Leaf attack % is 74%.

As to mancozeb, in the assay with Phakopsora pachyrhizi [4] (Mancozeb WP80 750 g a.i./ha), the Activity observed % stood at 47% and the Leaf attack % stood at 32%. For the same compound, in the assay with Phakopsora pachyrhizi [4] (Mancozeb WP80 1500 g a.i./ha), the Activity observed % was 37% and the Leaf attack % is 38%.
